Where two headings read alike, the source gives them in different places.
Assays:
[1] = target: T1, complement C5a receptor 1 (C5aR1) (Homo sapiens, UniProt P21730); experiment: β-arrestin recruitment via C5aR1 activation in live CHO-K1 cells (PathHunter), agonist mode; assay type: cell-based
T1 construct: β-galactosidase fragment (PathHunter enzyme complementation); host or cells: CHO-K1 (PathHunter CHO-K1 C5aR1 β-arrestin cell line)
T1 sequence (P21730 1-350): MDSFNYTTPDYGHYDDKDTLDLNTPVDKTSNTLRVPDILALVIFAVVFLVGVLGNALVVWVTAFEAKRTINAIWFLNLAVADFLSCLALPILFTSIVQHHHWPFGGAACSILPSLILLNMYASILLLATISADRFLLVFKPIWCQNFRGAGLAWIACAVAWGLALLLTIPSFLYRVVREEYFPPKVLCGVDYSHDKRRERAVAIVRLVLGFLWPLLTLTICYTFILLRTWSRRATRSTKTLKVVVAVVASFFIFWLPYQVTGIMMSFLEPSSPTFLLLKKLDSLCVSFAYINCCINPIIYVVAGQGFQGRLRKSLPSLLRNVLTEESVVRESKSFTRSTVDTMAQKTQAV
Procedure, shortened: (§1)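 β-arrestin recruitment to C5aR1 in CHO-K1 cells is detected by enzyme-fragment complementation. Antagonism is measured against recombinant hC5a at its EC90; agonism is measured with compound alone. Potencies are grouped into IC50 categories.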

[2] = target: T1, complement C5a receptor 1 (C5aR1); experiment: β-arrestin recruitment via C5aR1 activation in live CHO-K1 cells (PathHunter), antagonist mode; assay type: cell-based; details: antagonist mode; recombinant hC5a (EC90) as competing natural agonist; live CHO-K1 cells; read-out: [Antagonist] B-arrestin2 recruitment: Average IC50
Procedure, shortened: as §1

Row | Structure (SMILES) | [Agonist] B-arrestin2 recruitment: Average EC50 (nM) [1] | IC50 [2] | [Agonist] B-arrestin2 recruitment: Average EC50 (nM) ([1]; at 10 μM)
1 | Cc1cnc2cc(C3CCN(c4nncs4)CC3)c(=O)n(Cc3ncccc3C(F)(F)F)c2n1 [compound 132, 7-(1-(1,3,4-Thiadiazol-2-yl)piperidin-4-yl)-3-methyl-5-((3-(trifluoromethyl)pyridin-2-yl)methyl)pyrido[2,3-b]pyrazin-6(5H)-one] | Non-Active | > 100000 nM | –
2 | Cc1cnc2cc(C3CCN(c4c(C)ccnc4F)CC3)c(=O)n(Cc3nccnc3C)c2n1 [compound 134, 7-(1-(2-Fluoro-4-methylpyridin-3-yl)piperidin-4-yl)-3-methyl-5-((3-methylpyrazin-2-yl)methyl)pyrido[2,3-b]pyrazin-6(5H)-one] | – | < 500 nM | Non-Active at 10 μM
3 | Cc1cnc2cc(C3CCN(c4c(C)cccc4F)CC3)c(=O)n(Cc3ncccc3C(F)F)c2n1 [compound 138, 5-((3-(Difluoromethyl)pyridin-2-yl)methyl)-7-(1-(2-fluoro-6-methylphenyl)piperidin-4-yl)-3-methylpyrido[2,3-b]pyrazin-6(5H)-one] | Non-Active | < 500 nM | –
4 | Cc1cccc(F)c1N1CCC(c2nc3ccccc3n(Cc3ncccc3C(F)(F)F)c2=O)CC1 [compound 139, 3-(1-(2-Fluoro-6-methylphenyl)piperidin-4-yl)-1-((3-(trifluoromethyl)pyridin-2-yl)methyl)quinoxalin-2(1H)-one] | – | > 100000 nM | Non-Active at 10 μM
5 | Cc1cnc2cc(N3CCN(c4c(C)cccc4F)CC3)c(=O)n(Cc3ncccc3C(F)F)c2n1 [compound 140, 5-((3-(Difluoromethyl)pyridin-2-yl)methyl)-7-(4-(2-fluoro-6-methylphenyl)piperazin-1-yl)-3-methylpyrido[2,3-b]pyrazin-6(5H)-one] | – | < 500 nM | Non-Active at 10 μM
6 | Cc1cnc2cc(C3CCN(c4c(C)ccnc4F)CC3)c(=O)n(Cc3ncccc3C(F)F)c2n1 [compound 141, 5-((3-(Difluoromethyl)pyridin-2-yl)methyl)-7-(1-(2-fluoro-4-methylpyridin-3-yl)piperidin-4-yl)-3-methylpyrido[2,3-b]pyrazin-6(5H)-one] | Non-Active | < 500 nM | –
7 | Cc1cnc2cc(C3CCN(c4cnsc4C)CC3)c(=O)n(Cc3ncccc3C(F)(F)F)c2n1 [compound 145, 3-Methyl-7-(1-(5-methylisothiazol-4-yl)piperidin-4-yl)-5-((3-(trifluoromethyl)pyridin-2-yl)methyl)pyrido[2,3-b]pyrazin-6(5H)-one] | Non-Active | < 500 nM | –
8 | Cc1cnc2cc(C3CCN(c4nccnc4C)CC3)c(=O)n(Cc3ncccc3OC(F)(F)F)c2n1 [compound 153, 3-Methyl-7-(1-(3-methylpyrazin-2-yl)piperidin-4-yl)-5-((3-(trifluoromethoxy)pyridin-2-yl)methyl)pyrido[2,3-b]pyrazin-6(5H)-one] | – | 500 to 5000 nM | Non-Active at 10 μM
9 | Cc1cccc(F)c1N1CCC(c2cc3nccnc3n(Cc3nccnc3OC(F)F)c2=O)CC1 [compound 155, 5-((3-(Difluoromethoxy)pyrazin-2-yl)methyl)-7-(1-(2-fluoro-6-methylphenyl)piperidin-4-yl)pyrido[2,3-b]pyrazin-6(5H)-one] | – | < 500 nM | Non-Active at 10 μM
10 | Cc1cnc2cc([C@H]3CC[C@H](c4nccs4)CC3)c(=O)n(Cc3ncccc3C(F)(F)F)c2n1 [compound 158, 3-Methyl-7-((1r,4r)-4-(thiazol-2-yl)cyclohexyl)-5-((3-(trifluoromethyl)pyridin-2-yl)methyl)pyrido[2,3-b]pyrazin-6(5H)-one] | – | 500 to 5000 nM | Non-Active at 10 μM
11 | Cc1cccc(F)c1N1CCC(c2cc3nccnc3n(Cc3nccn(C(F)F)c3=O)c2=O)CC1 [compound 159, 5-((4-(Difluoromethyl)-3-oxo-3,4-dihydropyrazin-2-yl)methyl)-7-(1-(2-fluoro-6-methylphenyl)piperidin-4-yl)pyrido[2,3-b]pyrazin-6(5H)-one] | – | 5000 to 100000 nM | Non-Active at 10 μM
12 | Cc1cnc2cc(C3CCN(c4cnccc4C(F)F)CC3)c(=O)n(Cc3ncccc3C(F)(F)F)c2n1 [compound 162, 7-(1-(4-(Difluoromethyl)pyridin-3-yl)piperidin-4-yl)-3-methyl-5-((3-(trifluoromethyl)pyridin-2-yl)methyl)pyrido[2,3-b]pyrazin-6(5H)-one] | Non-Active | < 500 nM | –
13 | Cc1cnc2cc([C@H]3CC[C@H](c4scnc4C)CC3)c(=O)n(Cc3ncccc3C(F)(F)F)c2n1 [compound 164, 3-Methyl-7-((1r,4r)-4-(4-methylthiazol-5-yl)cyclohexyl)-5-((3-(trifluoromethyl)pyridin-2-yl)methyl)pyrido[2,3-b]pyrazin-6(5H)-one] | – | 500 to 5000 nM | Non-Active at 10 μM
14 | Cc1cnc2cc(C3CCN(c4nnccc4C(F)(F)F)CC3)c(=O)n(Cc3ncccc3C(F)(F)F)c2n1 [compound 165, 3-Methyl-7-(1-(4-(trifluoromethyl)pyridazin-3-yl)piperidin-4-yl)-5-((3-(trifluoromethyl)pyridin-2-yl)methyl)pyrido[2,3-b]pyrazin-6(5H)-one] | – | < 500 nM | Non-Active at 10 μM

Other lines, results leading:

Row | [Agonist] B-arrestin2 recruitment: Average EC50 (nM) [1] | IC50 [2] | [Agonist] B-arrestin2 recruitment: Average EC50 (nM) ([1]; at 10 μM) | Structure (SMILES)
15 | Non-Active | < 500 nM | – | Cc1cnc2cc(C3CCN(c4c(C)ccnc4F)CC3)c(=O)n(Cc3ncccc3C(F)(F)F)c2n1 [compound 133, 7-(1-(2-Fluoro-4-methylpyridin-3-yl)piperidin-4-yl)-3-methyl-5-((3-(trifluoromethyl)pyridin-2-yl)methyl)pyrido[2,3-b]pyrazin-6(5H)-one]
16 | Non-Active | > 100000 nM | – | Cc1cccc(F)c1N1CCC(c2nc3ccccc3n(Cc3nccnc3C(F)(F)F)c2=O)CC1 [compound 136, 3-(1-(2-Fluoro-6-methylphenyl)piperidin-4-yl)-1-((3-(trifluoromethyl)pyrazin-2-yl)methyl)quinoxalin-2(1H)-one]
17 | – | 500 to 5000 nM | Non-Active at 10 μM | Cc1cnc2cc(C3CCN(c4nccnc4C)CC3)c(=O)n(Cc3ncccc3C(F)(F)F)c2n1 [compound 151, 3-Methyl-7-(1-(3-methylpyrazin-2-yl)piperidin-4-yl)-5-((3-(trifluoromethyl)pyridin-2-yl)methyl)pyrido[2,3-b]pyrazin-6(5H)-one]
18 | Non-Active | < 500 nM | – | Cc1cnc2cc([C@H]3CC[C@H](c4c(C)cccc4F)CC3)c(=O)n(Cc3ncccc3OC(F)(F)F)c2n1 [compound 152, 7-((1r,4r)-4-(2-Fluoro-6-methylphenyl)cyclohexyl)-3-methyl-5-((3-(trifluoromethoxy)pyridin-2-yl)methyl)pyrido[2,3-b]pyrazin-6(5H)-one]
19 | – | < 500 nM | Non-Active at 10 μM | Cc1cnc2cc(C3CCN(c4ncccc4C(F)F)CC3)c(=O)n(Cc3ncccc3C(F)(F)F)c2n1 [compound 154, 7-(1-(3-(Difluoromethyl)pyridin-2-yl)piperidin-4-yl)-3-methyl-5-((3-(trifluoromethyl)pyridin-2-yl)methyl)pyrido[2,3-b]pyrazin-6(5H)-one]
20 | – | 500 to 5000 nM | Non-Active at 10 μM | Cc1cnc2cc(C3CCN(c4nccnc4C(F)(F)F)CC3)c(=O)n(Cc3ncccc3C(F)(F)F)c2n1 [compound 156, 3-Methyl-7-(1-(3-(trifluoromethyl)pyrazin-2-yl)piperidin-4-yl)-5-((3-(trifluoromethyl)pyridin-2-yl)methyl)pyrido[2,3-b]pyrazin-6(5H)-one]
21 | – | 500 to 5000 nM | Non-Active at 10 μM | Cc1cnc2cc(C3CCN(c4cccnc4C(F)(F)F)CC3)c(=O)n(Cc3ncccc3C(F)(F)F)c2n1 [compound 157, 3-Methyl-5-((3-(trifluoromethyl)pyridin-2-yl)methyl)-7-(1-(2-(trifluoromethyl)pyridin-3-yl)piperidin-4-yl)pyrido[2,3-b]pyrazin-6(5H)-one]
22 | – | 500 to 5000 nM | Non-Active at 10 μM | Cc1cnc2cc([C@H]3CC[C@H](c4ncsc4C)CC3)c(=O)n(Cc3ncccc3C(F)(F)F)c2n1 [compound 163, 3-Methyl-7-((1r,4r)-4-(5-methylthiazol-4-yl)cyclohexyl)-5-((3-(trifluoromethyl)pyridin-2-yl)methyl)pyrido[2,3-b]pyrazin-6(5H)-one]
23 | – | < 500 nM | Non-Active at 10 μM | Cc1cnc2cc([C@H]3CC[C@H](c4ncsc4C)CC3)c(=O)n(Cc3ncccc3OC(F)(F)F)c2n1 [compound 166, 3-Methyl-7-((1r,4r)-4-(5-methylthiazol-4-yl)cyclohexyl)-5-((3-(trifluoromethoxy)pyridin-2-yl)methyl)pyrido[2,3-b]pyrazin-6(5H)-one]

Reference: US20260317320A1, “C5AR1 ANTAGONISTS AND USES THEREOF” (Vanqua Bio, Inc., priority 2022, published 2026)
